Measurements: US5225528A, “Cyclic hexapeptide oxytocin antagonists” (priority 1990, dated 1993)
Where two headings read alike, the source gives them in different places. Numbered stars: 1 amine (or outer) side, 2 acyl side, 3 side chain; on linkers, the order of the positions; unused ones are H or OH. Square brackets hold non-standard residues; d marks the D form. Peptide text beside a SMILES is read from it. dPip(4-aza,4-Cbz) = O=C(O)[C@H]1CN(C(=O)OCc2ccccc2)CCN1; X2 = O=C(OCc1ccccc1)N1CCN([*:1])[C@H](C(=O)[*:2])C1; X5 = CC(C)(C)OC(=O)CN1CCN([*:1])[C@H](C(=O)[*:2])C1; dPhe(4-NO2) = N[C@H](Cc1ccc([N+](=O)[O-])cc1)C(=O)O; X4 = O=C([C@@H](Cc1cn(COCc2ccccc2)cn1)N[*:1])[*:2]; dNMeY = CN[C@H](Cc1ccc(O)cc1)C(=O)O; Pip(4-aza) = O=C(O)[C@@H]1CNCCN1; dNMeF = CN[C@H](Cc1ccccc1)C(=O)O; dPip(4-aza) = O=C(O)[C@H]1CNCCN1; Pip = O=C(O)[C@@H]1CCCCN1; dPip = O=C(O)[C@H]1CCCCN1; Dap = NC[C@H](N)C(=O)O

Assays:
uterine OT receptors = target: T1, uterine OT receptors (Rattus norvegicus, UniProt P70536); experiment: [^3 H]OT binding to uterine OT receptors, crude membrane preparation of uteri from DES-treated rats
T1 construct: from tissue; host or cells: uterus of DES-treated rats, crude membranes
T1 sequence (P70536 1-388): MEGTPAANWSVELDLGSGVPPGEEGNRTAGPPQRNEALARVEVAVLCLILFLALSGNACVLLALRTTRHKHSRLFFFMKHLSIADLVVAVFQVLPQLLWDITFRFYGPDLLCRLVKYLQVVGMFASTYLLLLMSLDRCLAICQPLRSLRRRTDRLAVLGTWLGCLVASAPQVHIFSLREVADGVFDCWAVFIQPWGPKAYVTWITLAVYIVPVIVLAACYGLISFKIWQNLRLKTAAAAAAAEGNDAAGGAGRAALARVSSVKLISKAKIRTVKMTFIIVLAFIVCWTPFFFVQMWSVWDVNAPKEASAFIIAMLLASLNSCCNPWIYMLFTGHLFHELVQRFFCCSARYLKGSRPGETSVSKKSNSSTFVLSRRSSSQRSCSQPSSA
Protocol: Competition studies were conducted at equilibrium (60 minutes; 22° C.) using 1 nM [^3 H]OT in the following assay buffer: 50 mM Tris-HCl, 5 mM MgCl2, and 0.1% BSA, pH 7.4.

AVP-V1 sites = target: T2, AVP-V1 sites (Rattus norvegicus, UniProt P30560); experiment: [^3 H]AVP binding to crude membrane preparation of male rat liver (AVP-V1 sites)
T2 construct: crude membrane preparation of male rat liver (AVP-V1 sites); from tissue; host or cells: male rat liver, crude membranes
Protocol: (§1) Nonspecific binding (5-10% of the total binding) was determined using 10 μM unlabeled AVP, and the binding reaction was terminated by filtration as described above for the [^3 H]OT binding assay.

AVP-V2 sites = target: T3, AVP-V2 sites (Rattus norvegicus, UniProt Q00788); experiment: [^3 H]AVP binding to crude membrane preparation of male rat kidney medulla (AVP-V2 sites)
T3 construct: male rat liver (AVP-V1 sites) or kidney medulla (AVP-V2 sites); from tissue; host or cells: male rat kidney medulla, crude membranes
Protocol: as §1

[1] = rat uterus membranes, 1 nM [^3 H]OT, read-out: Receptor Binding Results IC50 (nM) [^3 H]OT
[2] = read-out: Receptor Binding Results IC50 (nM) [^3 H]-AVP-V1
[3] = read-out: Receptor Binding Results IC50 (nM) [^3 H]-AVP-V2
[4] = Receptor Binding Results IC50 (nM) [^3 H]-AVP-V1
[5] = rat kidney medulla membranes, 2 nM [^3 H]AVP, read-out: Receptor Binding Results IC50 (nM) [^3 H]-AVP-V2
[6] = Receptor Binding Results IC50 (nM) [^3 H]-AVP-V2

T2 sequence (P30560 whole entry): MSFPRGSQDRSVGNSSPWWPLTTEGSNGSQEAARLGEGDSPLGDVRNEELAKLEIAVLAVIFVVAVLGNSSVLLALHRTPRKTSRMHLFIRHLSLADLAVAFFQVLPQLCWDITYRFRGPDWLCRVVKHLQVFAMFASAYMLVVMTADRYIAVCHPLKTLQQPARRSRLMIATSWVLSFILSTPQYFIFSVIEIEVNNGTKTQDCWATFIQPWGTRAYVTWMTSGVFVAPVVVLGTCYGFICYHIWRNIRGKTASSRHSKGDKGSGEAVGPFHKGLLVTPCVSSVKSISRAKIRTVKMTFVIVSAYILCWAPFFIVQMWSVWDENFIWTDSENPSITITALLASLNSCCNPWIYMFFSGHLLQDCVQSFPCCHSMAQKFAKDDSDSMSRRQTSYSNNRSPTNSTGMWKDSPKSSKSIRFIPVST
T3 sequence (Q00788 whole entry): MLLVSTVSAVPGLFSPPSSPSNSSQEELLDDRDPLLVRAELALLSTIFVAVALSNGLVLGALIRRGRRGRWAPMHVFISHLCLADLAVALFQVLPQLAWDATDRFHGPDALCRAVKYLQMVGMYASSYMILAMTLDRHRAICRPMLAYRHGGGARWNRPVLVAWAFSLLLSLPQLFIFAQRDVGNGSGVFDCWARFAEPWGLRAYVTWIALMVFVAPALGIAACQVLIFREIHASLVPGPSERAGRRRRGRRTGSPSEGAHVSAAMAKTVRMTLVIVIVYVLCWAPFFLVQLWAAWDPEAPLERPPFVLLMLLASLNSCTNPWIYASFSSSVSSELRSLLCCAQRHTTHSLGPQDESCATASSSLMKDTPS

SMILES	IC50 (uterine OT receptors; [1]) [nM]	IC50 (AVP-V1 sites; [4]) [nM]	IC50 (AVP-V2 sites; [5]) [nM]	other results
CC[C@H](C)[C@@H]1NC(=O)[C@@H](Cc2c[nH]c3ccccc23)NC(=O)[C@@H]2CCCN2C(=O)[C@@H](Cc2ccc(O)cc2)N(C)C(=O)[C@@H]2CCCCN2C(=O)[C@H]2CCCCN2C1=O [Example 137, c-[D-Tryptophanyl-L-isoleucyl-D-pipecolyl-L-pipecolyl-D-(N-methyl)tyrosyl-L-prolyl]] (cyclo(I[dPip][Pip][dNMeY]P[dW]))	7.9	–	–	IC50 (AVP-V1 sites; [2]): 9300 nM; IC50 (AVP-V2 sites; [3]): 245 nM
CC[C@H](C)[C@@H]1NC(=O)[C@@H](Cc2ccccc2)NC(=O)[C@@H]2CCCN2C(=O)[C@@H](Cc2ccccc2)NC(=O)[C@H](CC(N)=O)NC(=O)[C@H]([C@@H](C)O)NC1=O [Example 98, c-[D-Phenylalanyl-L-isoleucyl-L-threonyl-L-asparagyl-D-phenylalanyl-L-prolyl]] (cyclo(ITN[dF]P[dF]))	7700	> 10000	> 10000	–
CC[C@H](C)[C@@H]1NC(=O)[C@@H](Cc2ccccc2)NC(=O)[C@@H]2CCCN2C(=O)[C@@H](Cc2ccc([N+](=O)[O-])cc2)NC(=O)[C@@H]2CCCCN2C(=O)[C@H]2CCCCN2C1=O [Example 47, Cyclo[D-phenylalanyl-L-isoleucyl-D-pipecolyl-L-pipecolyl-D(p-nitro)phenylalanyl-L-prolyl]] (cyclo(I[dPip][Pip][dPhe(4-NO2)]P[dF]))	620	> 1000	10000	–
CC[C@H](C)[C@@H]1NC(=O)[C@@H](Cc2ccccc2)NC(=O)[C@@H]2CCCN2C(=O)[C@@H](Cc2ccccc2)N(C)C(=O)[C@H](CC(N)=O)NC(=O)[C@H]2CCCCN2C1=O [Example 118, c-[D-Phenylalanyl-L-isoleucyl-D-pipecolyl-L-asparagyl-N-methyl-D-phenylalanyl-L-prolyl]] (cyclo(I[dPip]N[dNMeF]P[dF]))	345	> 10000	10000	–
CC[C@H](C)[C@@H]1NC(=O)[C@@H](Cc2c[nH]c3ccccc23)NC(=O)[C@@H]2CCCN2C(=O)[C@@H](Cc2cn(COCc3ccccc3)cn2)NC(=O)[C@@H]2CNCCN2C(=O)[C@H]2CCCCN2C1=O [Example 177, c-[D-Tryptophanyl-L-isoleucinyl-D-pipecolyl-L-piperazin-2-yl-D-histidinyl(BOM)-L-prolyl]] (cyclo([dW]I[dPip][Pip(4-aza)][X4]P))	76	–	–	IC50 (AVP-V1 sites; [2]): 16000 nM; IC50 (AVP-V2 sites; [3]): 12000 nM
CC[C@H](C)[C@@H]1NC(=O)[C@@H](Cc2ccccc2)NC(=O)[C@@H]2CCCN2C(=O)[C@@H](Cc2ccccc2)NC(=O)[C@@H]2CN(C(=O)OCc3ccccc3)CCN2C(=O)[C@H]2CCCCN2C1=O [Example 77, c-[D-Phenylalanyl-L-isoleucinyl-D-pipecolyl-L-piperazin-2-yl(4-Cbz)-D-phenylalanyl-L-prolyl]] (cyclo(I[dPip][X2][dF]P[dF]))	240	10000	–	IC50 (AVP-V2 sites; [3]): 12300 nM
CC[C@H](C)[C@@H]1NC(=O)[C@@H](Cc2ccccc2)NC(=O)[C@@H]2CCCN2C(=O)[C@@H](Cc2ccccc2)N(C)C(=O)[C@@H]2CN(C(=O)OCc3ccccc3)CCN2C(=O)[C@H]2CN(C(=O)OCc3ccccc3)CCN2C1=O [Example 86, c-[D-Phenylalanyl-L-isoleucinyl-D-piperazin-2-yl(4-Cbz)-L-piperazin-2-yl(4-Cbz)-D-(N^α -methyl)phenylalanyl-L-prolyl]] (cyclo(I[dPip(4-aza,4-Cbz)][X2][dNMeF]P[dF]))	–	> 10000	> 10000	inhibition at 1 µM (uterine OT receptors; 1 h, @ 1,000 (nM), read-out: [^3 H]OT: percent inhibition of radioligand at the given concentration): 58%
CC[C@H](C)[C@@H]1NC(=O)[C@@H](Cc2c[nH]c3ccccc23)NC(=O)[C@@H]2CCCN2C(=O)[C@@H](Cc2c[nH]c3ccccc23)NC(=O)[C@@H]2CN(CC(=O)OC(C)(C)C)CCN2C(=O)[C@H]2CCCCN2C1=O [Example 162, c-[D-Tryptophanyl-L-isoleucinyl-D-pipecolyl-L-piperazin-2-yl(4-t-butylacetyl)-D-tryptophanyl-L-prolyl]] (cyclo([dW]I[dPip][X5][dW]P))	–	> 10000	10000	inhibition at 0.1 µM (uterine OT receptors; 1 h, @ 100 (nM), read-out: [^3 H]OT: percent inhibition of radioligand at the given concentration): 54%
CC[C@H](C)[C@@H]1NC(=O)[C@@H](Cc2ccccc2)NC(=O)[C@@H]2CCCN2C(=O)[C@@H](Cc2ccccc2)NC(=O)[C@@H]2CCCCN2C(=O)[C@H]2CNCCN2C1=O [Example 84, c-[D-Phenylalanyl-L-isoleucinyl-D-piperazin-2-yl-L-pipecolyl-D-phenyalanyl-L-prolyl]] (cyclo(I[dPip(4-aza)][Pip][dF]P[dF]))	> 1000	10000	> 10000	–
CC[C@H](C)[C@@H]1NC(=O)[C@@H](Cc2c[nH]c3ccccc23)NC(=O)[C@@H]2CCCN2C(=O)[C@@H](Cc2ccccc2)NC(=O)[C@@H]2CNCCN2C(=O)[C@H]2CCCCN2C1=O [Example 87, c-[D-Tryptophanyl-L-isoleucinyl-D-pipecolyl-L-piperazin-2-yl-D-phenylalanyl-L-prolyl]] (cyclo(I[dPip][Pip(4-aza)][dF]P[dW]))	62	> 10000	–	IC50 (AVP-V2 sites; [6]): > 1000 nM
CC[C@H](C)[C@@H]1NC(=O)[C@@H](Cc2ccccc2)NC(=O)[C@@H]2CCCN2C(=O)[C@@H](Cc2cnc[nH]2)NC(=O)[C@@H]2CCCCN2C(=O)[C@H]2CCCCN2C1=O [Example 3] (cyclo(I[dPip][Pip][dH]P[dF]))	88	–	19000	IC50 (AVP-V1 sites; [2]): 7300 nM
CC[C@H](C)[C@@H]1NC(=O)[C@@H](Cc2ccccc2)NC(=O)[C@@H]2CCCN2C(=O)[C@@H](Cc2ccccc2)N(C)C(=O)[C@H](CN)NC(=O)[C@H]2CCCCN2C1=O [Example 121, c-[D-Phenylalanyl-L-isoleucyl-D-pipecolyl-L-2,3-diaminopropionyl-N-methyl-D-phenylalanyl-L-prolyl]] (cyclo([Dap][dNMeF]P[dF]I[dPip]))	270	10000	10000	–
CC[C@H](C)[C@@H]1NC(=O)[C@@H](Cc2c[nH]c3ccccc23)NC(=O)[C@@H]2CCCN2C(=O)[C@@H](Cc2ccccc2)N(C)C(=O)[C@H]2CN(C(=O)OCc3ccccc3)CCN2C(=O)[C@H]2CCCCN2C1=O [Example 91, c-[D-Tryptophanyl-L-isoleucinyl-D-pipecolyl-D-piperazin-2-yl(4-Cbz)-D-(N^α -methyl)phenylalanyl-L-prolyl]] (cyclo(I[dPip][dPip(4-aza,4-Cbz)][dNMeF]P[dW]))	93	> 10000	–	IC50 (AVP-V2 sites; [6]): > 1000 nM
CC[C@H](C)[C@@H]1NC(=O)[C@@H](Cc2c[nH]c3ccccc23)NC(=O)[C@@H]2CCCN2C(=O)[C@@H](Cc2ccccc2)N(C)C(=O)[C@@H]2CNCCN2C(=O)[C@H]2CCCCN2C1=O [Example 92, c-[D-Tryptophanyl-L-isoleucinyl-D-pipecolyl-L-piperazin-2-yl-D-(N^α -methyl)phenylalanyl-L-prolyl]] (cyclo(I[dPip][Pip(4-aza)][dNMeF]P[dW]))	–	> 10000	–	IC50 (uterine OT receptors; Receptor Binding Results IC50 (nM) [^3 H]OT): 7.7 nM; IC50 (AVP-V2 sites; [3]): 750 nM
CC[C@H](C)[C@@H]1NC(=O)[C@@H](Cc2ccccc2)NC(=O)[C@@H]2CCCN2C(=O)[C@@H](Cc2ccccc2)NC(=O)[C@H](CC(N)=O)NC(=O)[C@@H](CCC(N)=O)NC1=O [Example 102] (cyclo([dF]I[dQ]N[dF]P))	> 10000	> 10000	> 10000	–
